Patent US12139477B2, “Compounds, salts thereof and methods for treatment of diseases” (ACADIA PHARMACEUTICALS INC., priority 2017, dated 2024)

What was measured:
hERG channel = target: T1, hERG channel (Homo sapiens, UniProt Q12809); assay: hERG assay, whole cell recordings in CHO cells (AVIVA); assay type: cell-based; conditions: CHO cells stably expressing hERG, pH 7.4
T1 construct: host or cells: CHO cells, stably transfected
Protocol: The most common mechanism for these adverse events is the inhibition of one or more cardiac potassium channels, in particular hERG. This current is important for cardiac myocyte repolarization and is a common target for drugs that prolong the QT interval. Test articles in this study were therefore characterized to determine their ability to inhibit the hERG channel. Ion channel activity was measured at AVIVA Biosciences Corporation (San Diego, CA), using a stably transfected Chinese Hamster Ovary (CHO) cell line expressing the hERG mRNA.
Cells: AVIVA's CHO cell line, which stably expresses hERG channels, was used for the study. Cells were cultured in DMEM/F12 containing 10% FBS, 1% penicillin/streptomycin and 500 μg/ml G418. Before testing, cells were harvested using Accumax (Innovative Cell Technologies).
Solutions: For electrophysiological recordings, the following solutions were used: External Solution: 2 mM CaCl2); 2 mM MgCl2; 4 mM KCl; 150 mM NaCl; 10 mM Glucose; 10 mM HEPES; 305-315 mOsm; pH 7.4 (adjusted with 5M NaOH); Internal Solution: 140 mM KCl; 10 mM MgCl2; 6 mM EGTA; 5 mM HEPES-Na; 5 mM ATP-Mg; 295-305 mOsm; pH 7.25 (adjusted with 1M KOH).
Electrophysiology: Whole cell recordings were performed using PX 7000A (Axon Instruments) with AVIVA's SealChip™ technology. Cells were voltage clamped at a holding potential of −80 mV. The hERG current was then activated by a depolarizing step to −50 mV for 300 ms. This first step at −50 mV was used as a baseline for measuring peak amplitude of the tail current. Next, a voltage step to +20 mV was applied for 5 s to activate the channels. Finally, a step back to −50 mV for 5 s removed activation and the deactivating tail current was recorded.
Test Article Handling and Dilutions: All test articles were prepared from 10 mM DMSO stock solutions provided by Sponsor. Solutions were mixed by sonication for 20 min, followed by vigorous vortexing. Prior to testing, compounds were diluted to test concentrations in glass vials using External Solution. Dilutions were prepared no longer than 20 min prior to use.
Electrophysiology Procedures: After achieving whole cell configuration, cells were monitored for 90 s to assess stability and then washed with External Solution for 66 s. The voltage protocol previously described was then applied to the cells every 12 s throughout the procedure. Only stable cells with recording parameters above threshold (see Quality Control section) were allowed to enter the drug addition procedure. External solution containing 0.1% DMSO (vehicle) was applied to the cells to establish a baseline. […] Test article solutions were added to cells in 4 separate additions. Cells were kept in test solution until effect of the test article reached steady state, to a maximum of 12 min. Next, 1 μM cisapride (positive control) was added. Finally, washout with External Solution was performed until the recovery current reached steady state.
Data Analysis: Data analysis was performed using DataXpress (Axon Instruments), Clampfit (Axon Instruments) and Origin (OriginLab Corporation) software.

5HT2A = 5HT2A (Homo sapiens, UniProt P28223); assay: Receptor Selection and Amplification (R-SAT) functional assay; assay type: cell-based; set-up: expressed in transfected cells; host or cells: NIH3T3 cells, pSI mammalian expression vector; conditions: NIH3T3 cells; Ki from IC50 by Cheng and Prussoff; read-out: 5-HT2a (pKi) (R-SAT) (converted)
Source text: Receptor Selection and Amplification (R-SAT) Assays. […] The IC50 determined in the RSAT assay was converted into a Ki value using the method of Cheng and Prussoff, Biochem Pharmacol., 1973 Dec. 1; 22(23):3099-108. pKi is the negative of the log(Ki).

T1 sequence (Q12809 whole entry): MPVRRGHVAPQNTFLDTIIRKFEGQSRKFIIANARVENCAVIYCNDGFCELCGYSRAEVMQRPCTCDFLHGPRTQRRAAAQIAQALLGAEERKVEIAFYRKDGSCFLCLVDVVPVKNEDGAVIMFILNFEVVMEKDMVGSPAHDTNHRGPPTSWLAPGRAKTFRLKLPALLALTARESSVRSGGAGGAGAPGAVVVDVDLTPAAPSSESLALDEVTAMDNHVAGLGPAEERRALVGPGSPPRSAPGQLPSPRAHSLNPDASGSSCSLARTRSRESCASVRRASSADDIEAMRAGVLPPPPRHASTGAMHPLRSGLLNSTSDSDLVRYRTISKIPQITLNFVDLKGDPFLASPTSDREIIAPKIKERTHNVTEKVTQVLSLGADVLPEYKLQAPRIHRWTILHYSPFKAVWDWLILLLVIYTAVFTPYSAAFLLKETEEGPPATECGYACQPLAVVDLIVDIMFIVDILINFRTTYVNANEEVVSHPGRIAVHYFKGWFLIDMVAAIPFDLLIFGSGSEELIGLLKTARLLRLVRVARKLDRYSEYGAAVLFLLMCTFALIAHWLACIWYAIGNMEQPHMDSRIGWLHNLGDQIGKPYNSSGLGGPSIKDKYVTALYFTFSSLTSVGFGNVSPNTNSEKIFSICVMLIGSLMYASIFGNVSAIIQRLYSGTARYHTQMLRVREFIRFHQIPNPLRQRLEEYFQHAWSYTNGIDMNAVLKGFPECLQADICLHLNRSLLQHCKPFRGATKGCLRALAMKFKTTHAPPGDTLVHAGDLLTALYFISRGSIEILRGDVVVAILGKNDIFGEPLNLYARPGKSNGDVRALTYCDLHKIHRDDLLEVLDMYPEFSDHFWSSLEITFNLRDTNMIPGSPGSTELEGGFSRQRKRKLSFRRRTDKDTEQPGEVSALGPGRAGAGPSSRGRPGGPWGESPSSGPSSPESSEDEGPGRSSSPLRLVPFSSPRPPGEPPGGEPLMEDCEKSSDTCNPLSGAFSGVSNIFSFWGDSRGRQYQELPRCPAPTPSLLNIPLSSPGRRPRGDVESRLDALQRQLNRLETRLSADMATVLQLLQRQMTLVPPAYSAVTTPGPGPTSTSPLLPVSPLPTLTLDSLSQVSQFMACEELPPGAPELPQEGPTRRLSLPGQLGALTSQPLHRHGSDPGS
5HT2A, sequence (P28223 whole entry): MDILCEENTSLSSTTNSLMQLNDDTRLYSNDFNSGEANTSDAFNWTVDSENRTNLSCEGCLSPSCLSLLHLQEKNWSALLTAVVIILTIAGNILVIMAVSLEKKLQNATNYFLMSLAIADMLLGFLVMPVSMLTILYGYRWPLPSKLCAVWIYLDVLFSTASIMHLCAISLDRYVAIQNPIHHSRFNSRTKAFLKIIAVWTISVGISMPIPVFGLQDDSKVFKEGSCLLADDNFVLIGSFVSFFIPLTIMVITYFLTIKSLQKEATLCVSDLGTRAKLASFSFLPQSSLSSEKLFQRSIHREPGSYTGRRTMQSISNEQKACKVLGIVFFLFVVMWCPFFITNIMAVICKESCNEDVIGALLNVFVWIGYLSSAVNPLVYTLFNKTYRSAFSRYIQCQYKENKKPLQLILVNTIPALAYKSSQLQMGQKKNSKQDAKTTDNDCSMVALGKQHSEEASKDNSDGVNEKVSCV

| Ki (5HT2A) [nM] | SMILES | inhibition at 1 µM (hERG channel) [%] |
| --- | --- | --- |
| 2.51 | CC(C)COc1ccc(CNC(=O)N(Cc2ccc(F)cc2F)C2CCNCC2)cc1 [Example 4, 1-[(2,4-difluorophenyl)methyl]-3-{[4-(2-methylpropoxy)phenyl]methyl}-1-(piperidin-4-yl)urea] | 11 |
| 2 | CC(C)COc1ccc(CNC(=O)N(Cc2ccc(F)cc2)C2CCN(C)CC2)cc1F [Example 6, 3-{[3-fluoro-4-(2-methylpropoxy)phenyl]methyl}-1-[(4-fluorophenyl)methyl]-1-(1-methylpiperidin-4-yl)urea] | 70 |
| 2 | CC(C)COc1ccc(CNC(=O)N(Cc2ccc(F)cc2)C2CCN(C)CC2)c(F)c1 [Example 7, 3-{[2-fluoro-4-(2-methylpropoxy)phenyl]methyl}-1-[(4-fluorophenyl)methyl]-1-(1-methylpiperidin-4-yl)urea] | 87 |
| 0.794 | CN1CCC(N(Cc2ccc(F)cc2F)C(=O)NCc2ccc3c(c2)CC(C)(C)O3)CC1 [Example 8, 1-[(2,4-difluorophenyl)methyl]-3-[(2,2-dimethyl-2,3-dihydro-1-benzofuran-5-yl)methyl]-1-(1-methylpiperidin-4-yl)urea] | 22 |
| 7.94 | CN1CCC(N(Cc2ccc(F)cc2F)C(=O)NCc2ccc3c(c2)C(C)(C)CO3)CC1 [Example 9, 1-[(2,4-difluorophenyl)methyl]-3-[(3,3-dimethyl-2,3-dihydro-1-benzofuran-5-yl)methyl]-1-(1-methylpiperidin-4-yl)urea] | 63 |
| 1 | CN1CCC(N(Cc2ccc(F)cc2F)C(=O)NCc2ccc3c(c2)CCO3)CC1 [Example 10, 1-[(2,4-difluorophenyl)methyl]-3-[(2,3-dihydro-1-benzofuran-5-yl)methyl]-1-(1-methylpiperidin-4-yl)urea] | 10 |
| 0.0794 | CC(C)COc1ccc(CNC(=O)N(Cc2ccc(F)cc2O)C2CCN(C)CC2)cc1 [Example 13, 1-[(4-fluoro-2-hydroxyphenyl)methyl]-1-(1-methylpiperidin-4-yl)-3-{[4-(2-methylpropoxy)phenyl]methyl}urea] | 34 |
| 1.58 | CC(C)COc1ccc(CNC(=O)N(Cc2ccc(F)cc2)C2CCN(C)CC2)c(O)c1 [Example 14, 1-[(4-fluorophenyl)methyl]-3-{[2-hydroxy-4-(2-methylpropoxy)phenyl]methyl}-1-(1-methylpiperidin-4-yl)urea] | 77 |
| 3.16 | CN1CCC(N(Cc2ccc(F)cc2F)C(=O)NCc2ccc(OCCF)cc2)CC1 [Example 15, 1-[(2,4-difluorophenyl)methyl]-3-{[4-(2-fluoroethoxy)phenyl]methyl}-1-(1-methylpiperidin-4-yl)urea] | 19 |
| 2 | CCOc1ccc(CNC(=O)N(Cc2ccc(F)cc2F)C2CCN(C)CC2)cc1 [Example 16, 1-[(2,4-difluorophenyl)methyl]-3-[(4-ethoxyphenyl)methyl]-1-(1-methylpiperidin-4-yl)urea] | 29 |
| 1.58 | C=CCOc1ccc(CNC(=O)N(Cc2ccc(F)cc2F)C2CCN(C)CC2)cc1 [Example 19, 3-(4-(allyloxy)benzyl)-1-(2,4-difluorobenzyl)-1-(1-methylpiperidin-4-yl)urea] | 33 |
| 1.58 | CN1CCC(N(Cc2ccc(F)cc2F)C(=O)NCc2ccc3occc3c2)CC1 [Example 20, 3-[(1-benzofuran-5-yl)methyl]-1-[(2,4-difluorophenyl)methyl]-1-(1-methylpiperidin-4-yl)urea] | 30 |
|  | Cc1nc2cc(CNC(=O)N(Cc3ccc(F)cc3F)C3CCN(C)CC3)ccc2o1 [Example 22] | 10 |
| 3.98 | Cc1noc2ccc(CNC(=O)N(Cc3ccc(F)cc3F)C3CCN(C)CC3)cc12 [Example 28] | 32 |
|  | CN1CCC(N(Cc2ccc(F)cc2F)C(=O)NCc2ccc3c(c2)n(C)c(=O)n3C)CC1 [Example 40] | 9 |
|  | CN1CCC(N(Cc2ccc(F)cc2F)C(=O)NCc2ccc3cn[nH]c3c2)CC1 [Example 41] | 23 |
| 39.8 | CN1CCC(N(Cc2ccc(F)cc2F)C(=O)NCc2ccc3c(c2)OCCOC3)CC1 [Example 52] | 8 |
|  | CN1CCC(N(Cc2ccc(F)cc2F)C(=O)NCc2ccc3c(c2)ncn3C)CC1 [Example 55] | 10 |
| 15.8 | CC(C)Oc1ccc(CNC(=O)N(Cc2ccc(F)cc2Cl)C2CCN(C)CC2)cc1 [Example 61] | 23 |
| 79.4 | CC(C)COc1ccc(CNC(=O)N(Cc2ccc(F)cc2Cl)C2CCN(C)CC2)cc1 [Example 62] | 32 |
| 3.98 | CCCOc1ccc(CNC(=O)N(Cc2ccc(F)cc2F)C2CCNCC2)cc1 [Example 76, 1-[(2,4-difluorophenyl)methyl]-1-(piperidin-4-yl)-3-[(4-propoxyphenyl)methyl]urea; Trifluoroacetic Acid] | 12 |
| 0.316 | CC(=O)Oc1cc(F)ccc1CN(C(=O)NCc1ccc(OCC(C)C)cc1)C1CCN(C)CC1 [Example 92, 5-fluoro-2-{[1-(1-methylpiperidin-4-yl)({[4-(2-methylpropoxy)-phenyl]methyl}carbamoyl)amino]methyl}phenyl acetate; Trifluoroacetic Acid] | 45 |
|  | COc1cc(F)c(F)cc1CN(C(=O)NCc1ccc(OC(C)C)cc1)C1CCN(C)CC1 [Example 138, 1-[(4,5-difluoro-2-methoxyphenyl)methyl]-1-(1-methylpiperidin-4-yl)-3-{[4-(propan-2-yloxy)phenyl]methyl}urea; Trifluoroacetic Acid] | 13 |
| 5.01 | COc1cc(CNC(=O)N(Cc2ccc(F)cc2F)C2CCN(C)CC2)ccc1F [Example 146, 1-[(2,4-difluorophenyl)methyl]-3-[(4-fluoro-3-methoxyphenyl)methyl]-1-(1-methylpiperidin-4-yl)urea; Trifluoroacetic Acid] |  |
| 3.16 | CCCCC(CC)COc1ccc(CNC(=O)N(Cc2ccc(F)cc2F)C2CCN(C)CC2)cc1 (centres unmarked) [Example 147, 1-[(2,4-difluorophenyl)methyl]-3-({4-[(2-ethylhexyl)oxy]phenyl}methyl)-1-(1-methylpiperidin-4-yl)urea; Trifluoroacetic Acid] |  |
| 5.01 | COc1cc(F)c(CNC(=O)N(Cc2ccc(F)cc2F)C2CCN(C)CC2)c(F)c1 [Example 150, 1-[(2,6-difluoro-4-methoxyphenyl)methyl]-3-[(2,4-difluorophenyl)methyl]-3-(1-methylpiperidin-4-yl)urea; Trifluoroacetic Acid] |  |
| 7.94 | O=C(O)C(F)(F)F.[2H]C1([2H])Oc2ccc(CNC(=O)N(Cc3ccc(F)cc3F)C3CCN(C)CC3)cc2C1([2H])[2H] [Example 159, 1-[(2,4-difluorophenyl)methyl]-3-{[2,3-dihydro(2,2,3,3-^2H4)-1-benzofuran-5-yl]methyl}-1-(1-methylpiperidin-4-yl)urea; Trifluoroacetic Acid] |  |

| SMILES | Ki (5HT2A) [nM] | inhibition at 1 µM (hERG channel) [%] |
| --- | --- | --- |
| CN1CCC(N(Cc2ccc(F)cc2F)C(=O)NCc2ccc(OC(C)(C)C)cc2)CC1 [Example 18, 3-{[4-(tert-butoxy)phenyl]methyl}-1-[(2,4-difluorophenyl)methyl]-1-(1-methylpiperidin-4-yl)urea] | 0.316 | 17 |
